pIC50: −log10 of the molar value. *1 amine or outer side, *2 acyl side, *3 side chain or, on linkers, in order; H or OH if unused. Where a SMILES comes first, the peptide text is derived from it. Bridges are numbered along the chain shown (N, C = ends). [ ]: non-standard residue; d: D form. Azetidine3carboxylic = O=C(C1CN([*:1])C1)[*:2]; 2Nal = N[C@@H](Cc1ccc2ccccc2c1)C(=O)O; NMeCha = CN[C@@H](CC1CCCCC1)C(=O)O; hArg = N=C(N)NCCCC[C@H](N)C(=O)O; NMeQ = CN[C@@H](CCC(N)=O)C(=O)O; Cha = N[C@@H](CC1CCCCC1)C(=O)O; NMeD = CN[C@@H](CC(=O)O)C(=O)O; Cba = N[C@@H](CC1CCC1)C(=O)O; Tle = CC(C)(C)[C@H](N)C(=O)O; S5 = C=CCCC[C@](C)(N)C(=O)O

As usually defined, the pIC50 is the IC50 on a negative log10 scale, so that one unit is a factor of ten. Higher therefore signals a small IC50.

The subject of this experiment is Colo320DM. The experiment in a line: Colo320DM cell viability. It counts as cell-based, human. From the text: In some embodiments, a polypeptide described herein inhibits binding of BLC9 to β-catenin when assessed in a cell-viability assay. In some embodiments, the cell-viability assay is a CellTiterGlo luminescent assay, wherein the viability of cells is quantitatively measured. Various cell lines, transformed cell lines or primary cells derived from a healthy subject or subject suffering from a disease can be used in this assay.

Compound `CC[C@H](C)[C@@H]1NC(=O)[C@@](C)(NC(=O)[C@H](CCCNC(=N)N)NC(=O)[C@H](CC(C)C)NC(=O)[C@@H](NC(=O)[C@H](CCC(N)=O)NC(=O)[C@H](CC(C)C)NC(=O)[C@H](CO)NC(=O)[C@H](CCCNC(=N)N)NC(=O)[C@H](CCC(=O)O)NC(=O)[C@H](CCCNC(=N)N)NC(=O)[C@H](Cc2c[nH]cn2)NC(=O)[C@H](CCC(=O)O)NC(C)=O)[C@@H](C)O)CCCC=CCCC[C@@](C)(C(=O)N[C@@H](CC2CCC2)C(=O)N[C@@H](Cc2ccc3ccccc3c2)C(N)=O)NC(=O)[C@H](CCCNC(=N)N)NC(=O)[C@H](CCC(N)=O)NC1=O` [SEQ ID NO: 9, EHRERSLQTLRXIQRX(CBA)(2-Nal)] (Ac-EHRERSLQTLR[S5]IQR[S5][Cba][2Nal]-NH2; staple 12-16) gave a pIC50 of 5.72. To `CC[C@H](C)[C@@H]1NC(=O)[C@@](C)(NC(=O)[C@H](CCCNC(=N)N)NC(=O)[C@H](CC(C)C)NC(=O)[C@@H](NC(=O)[C@]2(C)CCCC=CCCC[C@](C)(NC(=O)[C@H](CCCNC(=N)N)NC(=O)[C@H](Cc3c[nH]cn3)NC(C)=O)C(=O)N[C@@H](CCCNC(=N)N)C(=O)N[C@@H](CO)C(=O)N[C@@H](CC(C)C)C(=O)N2)[C@@H](C)O)CCCC=CCCC[C@@](C)(C(=O)N[C@@H](CC2CCC2)C(=O)N[C@@H](Cc2ccc3ccccc3c2)C(N)=O)NC(=O)[C@H](CCCNC(=N)N)NC(=O)[C@H](CCC(N)=O)NC1=O` [SEQ ID NO: 94, HRXRSLXTLRZIQRZ(CBA)(2-Nal)] (Ac-HR[S5]RSL[S5]TLR[S5]IQR[S5][Cba][2Nal]-NH2; staple 3-7, 11-15) belongs 5.48; to `CC[C@H](C)[C@@H]1NC(=O)[C@@](C)(NC(=O)[C@H](CCCNC(=N)N)NC(=O)[C@H](CC(C)C)NC(=O)[C@@H](NC(=O)[C@H](CCC(N)=O)NC(=O)[C@H](CC(C)C)NC(=O)[C@H](CO)NC(=O)[C@H](CCCNC(=N)N)NC(=O)[C@H](CCC(N)=O)NC(=O)[C@H](CCCNC(=N)N)NC(=O)[C@H](Cc2c[nH]cn2)NC(C)=O)[C@@H](C)O)CCCC=CCCC[C@@](C)(C(=O)N2CC(C(=O)N[C@@H](Cc3ccc4ccccc4c3)C(N)=O)C2)NC(=O)[C@H](CCCNC(=N)N)NC(=O)[C@H](CCC(N)=O)NC1=O` [SEQ ID NO: 178, HRQRSLQTLRXIQRX(Aze)(2-Nal)] (Ac-HRQRSLQTLR[S5]IQR[S5][Azetidine3carboxylic][2Nal]-NH2; staple 11-15), below 5.30.

Take `CC[C@H](C)[C@@H]1NC(=O)[C@@](C)(NC(=O)[C@H](CCCNC(=N)N)NC(=O)[C@H](CC(C)C)NC(=O)[C@@H](NC(=O)[C@H](CCC(N)=O)N(C)C(=O)[C@H](CC2CCCCC2)N(C)C(=O)[C@H](CO)NC(=O)[C@H](CCCNC(=N)N)NC(=O)[C@H](CCC(N)=O)NC(=O)[C@H](CCCNC(=N)N)NC(=O)[C@H](Cc2c[nH]cn2)NC(C)=O)[C@@H](C)O)CCCC=CCCC[C@@](C)(C(=O)N[C@@H](CC2CCCCC2)C(=O)N[C@@H](Cc2ccc3ccccc3c2)C(N)=O)NC(=O)[C@H](CCCNC(=N)N)NC(=O)[C@H](CCC(N)=O)NC1=O` [SEQ ID NO: 186, HRQRS(N-MeCha)(N-MeGln)TLRXIQRX(Cha)(2-Nal)] (Ac-HRQRS[NMeCha][NMeQ]TLR[S5]IQR[S5][Cha][2Nal]-NH2; staple 11-15): the pIC50 is 5.65. As for `CC[C@H](C)[C@@H]1NC(=O)[C@@](C)(NC(=O)[C@H](CCCNC(=N)N)NC(=O)[C@H](CC(C)C)NC(=O)[C@@H](NC(=O)[C@H](CCC(N)=O)NC(=O)[C@H](CC(C)C)NC(=O)[C@H](CO)NC(=O)[C@H](CCCNC(=N)N)NC(=O)[C@H](CCC(N)=O)NC(=O)[C@H](CCCNC(=N)N)NC(=O)[C@H](Cc2c[nH]cn2)NC(C)=O)[C@@H](C)O)CCCC=CCCC[C@@](C)(C(=O)N[C@H](C(=O)N[C@@H](Cc2ccc3ccccc3c2)C(N)=O)C(C)(C)C)NC(=O)[C@H](CCCNC(=N)N)NC(=O)[C@H](CCC(N)=O)NC1=O` [SEQ ID NO: 192, HRQRSLQTLRXIQRX(Tle)(2-Nal)] (Ac-HRQRSLQTLR[S5]IQR[S5][Tle][2Nal]-NH2; staple 11-15), the figure is 5.59.

The compound `CC[C@H](C)[C@@H]1NC(=O)[C@@](C)(NC(=O)[C@H](CCCNC(=N)N)NC(=O)[C@H](CC(C)C)NC(=O)[C@@H](NC(=O)[C@H](CCC(N)=O)NC(=O)[C@H](CC(C)C)NC(=O)[C@H](CO)NC(=O)[C@H](CCCNC(=N)N)NC(=O)[C@H](CCC(N)=O)N(C)C(=O)[C@H](CCCNC(=N)N)NC(=O)[C@H](Cc2c[nH]cn2)NC(C)=O)[C@@H](C)O)CCCC=CCCC[C@@](C)(C(=O)N[C@H](C(=O)N[C@@H](Cc2ccc3ccccc3c2)C(N)=O)C(C)(C)C)NC(=O)[C@H](CCCNC(=N)N)NC(=O)[C@H](CCC(N)=O)NC1=O` [SEQ ID NO: 194, HR(N-MeGln)RSLQTLRXIQRX(Tle)(2-Nal)] (Ac-HR[NMeQ]RSLQTLR[S5]IQR[S5][Tle][2Nal]-NH2; staple 11-15) had a pIC50 of 5.43. To `CC[C@H](C)[C@@H]1NC(=O)[C@@](C)(NC(=O)[C@H](CCCNC(=N)N)NC(=O)[C@H](CC(C)C)NC(=O)[C@@H](NC(=O)[C@H](CCC(N)=O)NC(=O)[C@H](CC(C)C)NC(=O)[C@H](CO)NC(=O)[C@H](CCCNC(=N)N)NC(=O)[C@H](CC(=O)O)N(C)C(=O)[C@H](CCCNC(=N)N)NC(=O)[C@H](Cc2c[nH]cn2)NC(C)=O)[C@@H](C)O)CCCC=CCCC[C@@](C)(C(=O)N[C@@H](CC2CCC2)C(=O)N[C@@H](Cc2ccc3ccccc3c2)C(N)=O)NC(=O)[C@H](CCCNC(=N)N)NC(=O)[C@H](CCC(N)=O)NC1=O` [SEQ ID NO: 157, HR(N-methylD)RSLQTLRXIQRX(CBA)(2-Nal)] (Ac-HR[NMeD]RSLQTLR[S5]IQR[S5][Cba][2Nal]-NH2; staple 11-15) belongs 5.50; to `CC[C@H](C)[C@@H]1NC(=O)[C@@](C)(NC(=O)[C@H](CCCNC(=N)N)NC(=O)[C@H](CC(C)C)NC(=O)[C@@H](NC(=O)[C@H](CCC(N)=O)NC(=O)[C@H](CC(C)C)NC(=O)[C@@H](NC(=O)[C@H](CCCNC(=N)N)NC(=O)[C@H](CCC(N)=O)NC(=O)[C@H](CCCNC(=N)N)NC(=O)[C@H](Cc2c[nH]cn2)NC(C)=O)[C@@H](C)O)[C@@H](C)O)CCCC=CCCC[C@@](C)(C(=O)N[C@@H](CC2CCC2)C(=O)N[C@@H](Cc2ccc3ccccc3c2)C(N)=O)NC(=O)[C@H](CCCNC(=N)N)NC(=O)[C@H](CCC(N)=O)NC1=O` [SEQ ID NO: 159, HRQRTLQTLRXIQRX(CBA)(2-Nal)] (Ac-HRQRTLQTLR[S5]IQR[S5][Cba][2Nal]-NH2; staple 11-15), 5.61; to `CC[C@H](C)[C@@H]1NC(=O)[C@@](C)(NC(=O)[C@H](CCCNC(=N)N)NC(=O)[C@H](CC(C)C)NC(=O)[C@@H](NC(=O)[C@H](CCC(N)=O)NC(=O)[C@H](CC(C)C)NC(=O)[C@H](CO)NC(=O)[C@H](CCCCNC(=N)N)NC(=O)[C@H](CCC(N)=O)NC(=O)[C@H](CCCNC(=N)N)NC(=O)[C@H](Cc2c[nH]cn2)NC(C)=O)[C@@H](C)O)CCCC=CCCC[C@@](C)(C(=O)N[C@@H](CC2CCC2)C(=O)N[C@@H](Cc2ccc3ccccc3c2)C(N)=O)NC(=O)[C@H](CCCNC(=N)N)NC(=O)[C@H](CCC(N)=O)NC1=O` [SEQ ID NO: 167, HRQ(homoR)SLQTLRXIQRX(CBA)(2-Nal)] (Ac-HRQ[hArg]SLQTLR[S5]IQR[S5][Cba][2Nal]-NH2; staple 11-15), 5.32. To `CC[C@H](C)[C@@H]1NC(=O)[C@@](C)(NC(=O)[C@H](CCCNC(=N)N)NC(=O)[C@H](CC(C)C)NC(=O)[C@@H](NC(=O)[C@H](CCC(N)=O)NC(=O)[C@H](CC(C)C)NC(=O)[C@H](CO)NC(=O)[C@H](CCCNC(=N)N)NC(=O)[C@H](CCC(=O)O)NC(=O)[C@H](CCCNC(=N)N)NC(=O)[C@H](Cc2c[nH]cn2)NC(C)=O)[C@@H](C)O)CCCC=CCCC[C@@](C)(C(=O)N[C@@H](CC2CCC2)C(=O)N[C@@H](Cc2ccc3ccccc3c2)C(N)=O)NC(=O)[C@H](CCCNC(=N)N)NC(=O)[C@H](CCC(N)=O)NC1=O` [SEQ ID NO: 14, HRERSLQTLRXIQRX(CBA)(2-Nal)] (Ac-HRERSLQTLR[S5]IQR[S5][Cba][2Nal]-NH2; staple 11-15) belongs 5.83; to `CC[C@H](C)[C@@H]1NC(=O)[C@@](C)(NC(=O)[C@H](CCCNC(=N)N)NC(=O)[C@H](CC(C)C)NC(=O)[C@@H](NC(=O)[C@H](CCC(N)=O)NC(=O)[C@H](CC(C)C)NC(=O)[C@H](CO)NC(=O)[C@H](CCCNC(=N)N)NC(=O)[C@H](CCC(=O)O)NC(=O)[C@H](CCCNC(=N)N)NC(=O)[C@H](Cc2c[nH]cn2)NC(C)=O)[C@@H](C)O)CCCC=CCCC[C@@](C)(C(=O)N[C@@H](CC2CCC2)C(=O)N[C@@H](Cc2ccc3ccccc3c2)C(N)=O)NC(=O)[C@H](CCC(N)=O)NC(=O)[C@H](CCC(N)=O)NC1=O` [SEQ ID NO: 145, HRERSLQTLRXIQQX(CBA)(2-Nal)] (Ac-HRERSLQTLR[S5]IQQ[S5][Cba][2Nal]-NH2; staple 11-15), below 5.30; to `CC[C@H](C)[C@@H]1NC(=O)[C@@](C)(NC(=O)[C@H](CCCNC(=N)N)NC(=O)[C@H](CC(C)C)NC(=O)[C@@H](NC(=O)[C@H](CCC(N)=O)NC(=O)[C@H](CC(C)C)NC(=O)[C@H](CO)NC(=O)[C@H](CCCNC(=N)N)NC(=O)[C@H](CCC(=O)O)NC(=O)[C@H](CCCNC(=N)N)NC(=O)[C@H](Cc2c[nH]cn2)NC(C)=O)[C@@H](C)O)CCCC=CCCC[C@@](C)(C(=O)N[C@@H](CC2CCC2)C(=O)N[C@@H](Cc2ccc3ccccc3c2)C(N)=O)NC(=O)[C@H](C)NC(=O)[C@H](CCC(N)=O)NC1=O` [SEQ ID NO: 29, HRERSLQTLRXIQAX(CBA)(2-Nal)] (Ac-HRERSLQTLR[S5]IQA[S5][Cba][2Nal]-NH2; staple 11-15), 5.57. As for `CC[C@H](C)[C@@H]1NC(=O)[C@@](C)(NC(=O)[C@H](CCCNC(=N)N)NC(=O)[C@H](CC(C)C)NC(=O)[C@@H](NC(=O)[C@H](CCC(N)=O)NC(=O)[C@H](CC(C)C)NC(=O)[C@H](CO)NC(=O)[C@H](CCCNC(=N)N)NC(=O)[C@H](CCC(N)=O)NC(=O)[C@H](CCCNC(=N)N)N(C)C(=O)[C@H](Cc2c[nH]cn2)NC(C)=O)[C@@H](C)O)CCCC=CCCC[C@@](C)(C(=O)N[C@@H](CC2CCC2)C(=O)N[C@@H](Cc2ccc3ccccc3c2)C(N)=O)NC(=O)[C@H](CCCNC(=N)N)NC(=O)[C@H](CCC(N)=O)NC1=O` (single isomer, unassigned) [SEQ ID NO: 158, H(R-Me)QRSLQTLRXIQRX(CBA)(2-Nal)], the figure is 5.48.
